In series [1] the test system is Treponema hyodysenteriae. Nature of the series: in vitro antibacterial activity (MIC, agar dilution method), Test Examples 1-3. The following applies: 37° C., 2 days, anaerobic; for MIC: Brachyspira hyodysenteriae, 48 h. Format: cell-based. How it is done: Several agents were tested for in vitro antibacterial activity against Treponema hyodysenteriae, the pathogenic bacteria causing swine dysentery, by the method of testing drug sensitivity of Treponema hyodysenteriae (Kashiwazaki et al. Abstracts of Papers presented at the 82nd Meeting of the Japanese Society of Veterinary Science, page 101, 1976).
(1) Strains: These strains belong to Treponema hyodysenteriae isolated
from the bloody mucous faeces of dysenteric pigs in Japan.
(2) Antimicrobial activity assay: Agar dilution method
(3) Inoculum size: A loopful of bacterial suspension (10^6 CFU/ml)
(4) Cultural conditions: GasPak anaerobic system (BBL), 37° C., 2
Typical agents among compound (I) were tested for in vitro antibacterial activity by the same method as in Test Example 1.
The experimental conditions are the same as in Test Example 1 (Table 1).
Agents of compound (I) were tested for in vitro antibacterial activity by the same method as in Test Example 1.
(In general: In agar dilution the substance is mixed into plates at graded concentrations.)

Series [2] relates to Treponema hyodysenteriae. As to the kind of experiment: efficacy in experimental infection in mice with swine dysentery, Test Example 4. Type of series: in vivo. The note with it: 5 mg/kg/day oral, day 1 to day 4; seven days after infection. How it is done: Lankacidin A, lankacidin C, lankacidin C 8-acetate, lankacidin C 14-propionate, lankacidinol A and lankacidinol were tested for efficacy against swine dysentery in experimental infection in mice with swine dysentery.
The similar experimental infection model of swine dysentery in mice as that described, for example, by Joens et al. in Infection and Immunity, 25, 757-760 (1979), American Journal of Veterinary Research, 41, 1225-1226 (1980) and Veterinary Record, 107, 527-529 (1980) was used. Thus, a field isolate of Treponema hyodysenteriae anaerobically cultivated on the 5% defibrinated horse blood added Trypticase soy agar (BBL) plate was mashed together with the culture medium and diluted two-fold with Trypticase soy broth (BBL). Mice were inoculated intragastrically with this infecting dilution. Each test agent was suspended in 5% gum arabic solution and forcibly administered orally from day 1 to day 4 following infection. Seven days after infection, the cecum was examined for lesions, and the cecum was mashed together with the contents and subjected to Treponema hyodysenteriae counting. Excellent efficacy was produced in each of the drug-administered groups.

The test system of series [3] is Treponema hyodysenteriae 78/A strain. Nature of the series: efficacy against swine dysentery under experimental infection conditions in pigs (drug in feed), Test Examples 5-7. Type of series: in vivo, Landrace pigs. The following applies: for Number of days on which diarrhea was observed / Number of days on which mucous bloody stool was observed / Number of pigs showing signs of infection/number of pigs used: 21-day test period; for Body weight gain / Feed conversion / Feed intake: 21 day period; for Body weight gain / Feed conversion / Feed intake / Body weight at the time of completion of test: mean per head; for effect against swine dysentery (in words): pig, in vivo. How it is done: Lankacidin C was tested for efficacy against swine dysentery under experimental infection conditions. Thus, twelve 6-week-old Landrace pigs (4 per group) were used. The test drug was admixed to a concentration of 100 ppm with the domestically formulated starter feed for young pigs without antibiotics. The animals were provided with the ration ad libitum. Infection of the pigs was effected by direct intragastrical administration to the SPF pigs of an inoculum prepared by preliminary anaerobic cultivation of the Treponema hyodysenteriae 78/A strain on a 5% horse blood added agar plate, mashing together with the culture medium and admixing with 5% mucin added phosphate buffer. Colonic contents and mucosa were collected from pigs which developed typical signs of swine dysentery, and diluted two-fold with 5% mucin added phosphate buffer. The dilution was used as the final inoculum, and 100 ml of the dilution was directly injected into the stomach of test pigs at the age of 7 weeks (fasted for 24 hours before infection). The pigs were fed for 21 days following infection.
The data are each the mean value per head for the 21day period from
infection to autopsy. Different alphabetic letters on the same line
indicate that there is a significant difference between the data to which
they are attached (P <0.05).
Lankacidin C was tested at concentrations in feed of 100 ppm and lower by the same method as in Test Example 5, with carbadox, a commonly used anti-swine-dysentery agent, for comparison.
The anti-swine-dysentery effects of 10 ppm each of lankacidin A and lankacidin C 14-propionate were examined by the procedure of Test Example 6.

Series [4] is described as follows: acute toxicity tests with mice. The note with it: mouse, in vivo. An excerpt: The toxicity of compound (I) in animals is very low.
For series [5], the system named is Treponema hyodysenteriae 78/A strain. Nature of the series: therapeutic administration in pigs showing clinical signs of swine dysentery, Test Examples 8-9. Format: in vivo. The note with it: for Condition of feces: Table 9, individual pig. The protocol: This test was conducted under the conditions of so-called therapeutic administration. […] The method of infection was the same as in Test Example 5. […] Simultaneously with showing of the signs, the pigs were provided with a feed containing 50 ppm of lankacidin C. […] After 2 days, the viable count for the pathogen in feces was below the detection limit (10^2 CFU/g).
The condition of feces was rated at one of the following four classes:
.circle. normal; loose; diarrheal; .circleincircle. mucous and bloody
count is below the detection limit (10^2 CFU/g).
The symbol * indicates those days on which the feed containing 50 ppm of
lankacidin C was given.
Lankacidins were tested for therapeutic effects in swine dysentery under therapeutic conditions in the same manner as in Test Example 8. The effects were judged based on the condition of feces.
The condition of feces was rated at one of the following four classes;
The symbol * indicates the days on which the feed containing 50 ppm of th

Where [6] appears, read: strain 78/A, read-out: Minimum Inhibitory Concentration.
Setting [7] is: strain CD1 (CD-1), read-out: Minimum Inhibitory Concentration.
Setting [8] is: strain DJ70P1, read-out: Minimum Inhibitory Concentration.
Setting [9] is: strain MK-2, read-out: Minimum Inhibitory Concentration.

≈ marks a conversion by molar mass, not a printed value. Where two headings read alike, the source gives them in different places.

With `CC(=O)OC1C=CC(C)=CC(NC(=O)C(C)=O)C2(C)C(=O)OC(CC(O)C=CC(C)=CC1)C(C)C2=O` (stereo not drawn) [Lankacidin C 8-acetate, lankacidin C 8-acetate], the MIC with Treponema hyodysenteriae [1] (setting [6]) turned out to be 0.39 µg/mL (≈ 0.778 µM); with Treponema hyodysenteriae [1] (setting [7]), 0.39 µg/mL (≈ 0.778 µM); in the series on Treponema hyodysenteriae [1] (setting [8]), 0.78 µg/mL (≈ 1.56 µM); in the series with Treponema hyodysenteriae [1] (setting [9]), 0.39 µg/mL (≈ 0.778 µM). Moreover, the “Number of mice from which the pathogen was detected/number of mice tested” value in the series on Treponema hyodysenteriae [2] is given as 0/5. In addition, the “Number of mice with cecal lesions/number of mice tested” value in the series with Treponema hyodysenteriae [2] is reported as 0/5.
On to Maridomycin [reference compound], for which, in the series on Treponema hyodysenteriae [1] (strain 78/A), the “Minimum Inhibitory Concentration” value was over 100 µg/mL. Moreover, the “Minimum Inhibitory Concentration” value in the series on Treponema hyodysenteriae [1] (strain CD1 (CD-1)) is over 100 µg/mL. Moreover, in the series with Treponema hyodysenteriae [1] (strain DJ70P1), the “Minimum Inhibitory Concentration” value was over 100 µg/mL. The “Minimum Inhibitory Concentration” value in the series with Treponema hyodysenteriae [1] (strain MK-2) is over 100 µg/mL. For the same compound, in series [3] (100 ppm in feed), the “Number of pigs from which the pathogen was detected, in colonic mucosa” value came out at 4; the “Number of pigs from which the pathogen was detected, in feces” value turned out to be 4; the “Number of pigs showing colonic lesions” value was determined as 4; the “Number of days on which diarrhea was observed” value is 11.0 days. Besides, in series [3] (100 ppm in feed), the “Number of days on which mucous bloody stool was observed” value came to 5.5 days, the “Number of pigs showing signs of infection/number of pigs used” value is 3/4, the Body weight gain was determined as 430 grams/day and the Feed conversion came to 2.09. For the same compound, in series [3] (100 ppm in feed), the Feed intake stood at 18.8 kg and the “Body weight at the time of completion of test” value amounted to 21.9 kg. The “effect against swine dysentery (in words)” value in series [3] is on record as “ineffective”.
`CC1=CCC(O)C=CC(C)=CC(NC(=O)C(C)O)C2(C)C(=O)OC(CC(O)C=C1)C(C)C2=O` (stereo not drawn) [Lankacidinol, lankacidinol]: the MIC in the series on Treponema hyodysenteriae [1] (read-out: Minimum Inhibitory Concentration, strain 78/A) is 12.5 µg/mL (≈ 27.1 µM); in the series with Treponema hyodysenteriae [1] (read-out: Minimum Inhibitory Concentration, strain CD1 (CD-1)), 12.5 µg/mL (≈ 27.1 µM); with Treponema hyodysenteriae [1] (read-out: Minimum Inhibitory Concentration, strain DJ70P1), 25 µg/mL (≈ 54.2 µM); in the series with Treponema hyodysenteriae [1] (read-out: Minimum Inhibitory Concentration, strain MK-2), 25 µg/mL (≈ 54.2 µM). For the same compound, the “Number of mice from which the pathogen was detected/number of mice tested” value in the series with Treponema hyodysenteriae [2] was 0/5. Moreover, the “Number of mice with cecal lesions/number of mice tested” value in the series with Treponema hyodysenteriae [2] is reported as 0/5.
For `CC(=O)OC1C=CC(C)=CCC(O)C=CC(C)=CC(NC(=O)C(C)O)C2(C)C(=O)OC(C1)C(C)C2=O` (stereo not drawn) [Lankacidinol A, lankacidinol A], the MIC is 12.5 µg/mL (≈ 24.8 µM) in the series with Treponema hyodysenteriae [1] (setting [6]), 25 µg/mL (≈ 49.6 µM) with Treponema hyodysenteriae [1] (setting [7]), 25 µg/mL (≈ 49.6 µM) in the series on Treponema hyodysenteriae [1] (setting [8]) and 25 µg/mL (≈ 49.6 µM) with Treponema hyodysenteriae [1] (setting [9]). For the same compound, in the series with Treponema hyodysenteriae [2], the “Number of mice from which the pathogen was detected/number of mice tested” value was 1/5. The “Number of mice with cecal lesions/number of mice tested” value in the series on Treponema hyodysenteriae [2] is 0/5.
As for `CCC(=O)OC1C=CC(C)=CCC(O)C=CC(C)=CC(NC(=O)C(C)=O)C2(C)C(=O)OC(C1)C(C)C2=O` (stereo not drawn) [Lankacidin C 14-propionate, lankacidin C 14-propionate], the LD50 in series [4] (ip, intraperitoneal, read-out: intraperitoneal LD50) is over 10000 mg/kg; in series [4] (oral, read-out: oral LD50), over 10000 mg/kg. Besides, the MIC stood at 1.56 µg/mL (≈ 3.03 µM) in the series on Treponema hyodysenteriae [1] (setting [6]), 3.13 µg/mL (≈ 6.07 µM) in the series with Treponema hyodysenteriae [1] (setting [7]), 3.13 µg/mL (≈ 6.07 µM) in the series on Treponema hyodysenteriae [1] (setting [8]) and 1.56 µg/mL (≈ 3.03 µM) with Treponema hyodysenteriae [1] (setting [9]). Also, in the series on Treponema hyodysenteriae [2], the “Number of mice from which the pathogen was detected/number of mice tested” value is on record as 1/5. Also, the “Number of mice with cecal lesions/number of mice tested” value in the series with Treponema hyodysenteriae [2] was 0/5. Further, the “therapeutic effect in swine dysentery (in words)” value in series [5] (50 ppm in feed) is on record as “therapeutically effective”. Further, the Condition of feces entry in series [5] (50 ppm in feed days 0-6, day 7) is “.circle”; in series [5] (50 ppm in feed days 0-6, day 8) it was “.circle”; in series [5] (50 ppm in feed days 0-6, day 9), “.circle”; in series [5] (50 ppm in feed days 0-6, day 10), “.circle”; in series [5] (50 ppm in feed days 0-6, day 11), “.circle”; in series [5] (50 ppm in feed days 0-6, day 12) it was “.circle”. Further, the Condition of feces result in series [5] (50 ppm in feed days 0-6, day 13) is reported as “.circle”; in series [5] (50 ppm in feed days 0-6, day 14) it was “.circle”; in series [5] (50 ppm in feed days 0-6, day 15) it was “.circle”; in series [5] (50 ppm in feed days 0-6, day 16) it was “.circle”; in series [5] (50 ppm in feed days 0-6, day 17) it was “.circle”; in series [5] (50 ppm in feed days 0-6, day 18), “.circle”. Further, the Condition of feces result in series [5] (50 ppm in feed days 0-6, day 19) was “.circle”; in series [5] (50 ppm in feed days 0-6, day 20), “.circle”; in series [5] (50 ppm in feed days 0-6, day 21) it was “.circle”; in series [5] (50 ppm in feed, day 0 after manifestation of signs) it was “.circleincircle”; in series [5] (50 ppm in feed, day 1), “.circle”; in series [5] (50 ppm in feed, day 2), “.circle”. The Condition of feces result in series [5] (50 ppm in feed, day 3) was “.circle”; in series [5] (50 ppm in feed, day 4), “.circle”; in series [5] (50 ppm in feed, day 5), “.circle”; in series [5] (50 ppm in feed, day 6), “.circle”. Besides, the “Number of pigs from which the pathogen was detected, in colonic mucosa” value in series [3] (10 ppm in feed) is 0. For the same compound, in series [3] (10 ppm in feed), the “Number of pigs from which the pathogen was detected, in feces” value amounted to 0. The “Number of pigs showing colonic lesions” value in series [3] (10 ppm in feed) is reported as 0. In series [3] (10 ppm in feed), the “Number of days on which diarrhea was observed” value is 0 days. Further, the “Number of days on which mucous bloody stool was observed” value in series [3] (10 ppm in feed) worked out at 0 days. Also, the “Number of pigs showing signs of infection/number of pigs used” value in series [3] (10 ppm in feed) is 0/4. Moreover, in series [3] (10 ppm in feed), the Body weight gain is recorded as 562 grams/day. Further, the Feed conversion in series [3] (10 ppm in feed) turned out to be 1.81. For the same compound, the Feed intake in series [3] (10 ppm in feed) stood at 21.1 kg. For the same compound, in series [3] (10 ppm in feed), the “Body weight at the time of completion of test” value turned out to be 23.1 kg. For the same compound, the “effect against swine dysentery (in words)” value in series [3] is on record as “distinctly effective against swine dysentery”.

The LD50 is the dose expected to kill half of the subjects tested.

These data come from patent publication US4425356A, “Lankacidin derivatives used in swine husbandry” (Takeda Chemical Industries, Ltd., priority 1980, dated 1984).
